ChEMBL document CHEMBL3407361, “Structural exploration, synthesis and pharmacological evaluation of novel 5-benzylidenethiazolidine-2,4-dione derivatives as iNOS inhibitors against inflammatory diseases” (Eur J Med Chem, 2015)
≈ marks a conversion by molar mass, not a printed value. Calls of active or inactive are those of the source. No cut-off for these calls is given here.

Legend:
RAW264.7 [1] = assay: Inhibition of LPS-induced nitric oxide production in mouse RAW264.7 cells pre-incubated at 100 uM for 2 hrs before LPS challenge measured 18 hrs post LPS challenge by Griess method; type: functional, cell-based
RAW264.7 [2] = assay: Inhibition of LPS-induced nitric oxide production in mouse RAW264.7 cells pre-incubated for 2 hrs before LPS challenge measured 18 hrs post LPS challenge by Griess method; type: functional, cell-based
[3] = molecular target: T1, Nitric oxide synthase, inducible (Mus musculus, UniProt P29477); assay: Inhibition of iNOS-induced nitric oxide production in LPS-stimulated mouse RAW264.7 cells pre-incubated for 2 hrs before LPS challenge by fluorescence assay; type: cell-based
T1 sequence (P29477 whole entry): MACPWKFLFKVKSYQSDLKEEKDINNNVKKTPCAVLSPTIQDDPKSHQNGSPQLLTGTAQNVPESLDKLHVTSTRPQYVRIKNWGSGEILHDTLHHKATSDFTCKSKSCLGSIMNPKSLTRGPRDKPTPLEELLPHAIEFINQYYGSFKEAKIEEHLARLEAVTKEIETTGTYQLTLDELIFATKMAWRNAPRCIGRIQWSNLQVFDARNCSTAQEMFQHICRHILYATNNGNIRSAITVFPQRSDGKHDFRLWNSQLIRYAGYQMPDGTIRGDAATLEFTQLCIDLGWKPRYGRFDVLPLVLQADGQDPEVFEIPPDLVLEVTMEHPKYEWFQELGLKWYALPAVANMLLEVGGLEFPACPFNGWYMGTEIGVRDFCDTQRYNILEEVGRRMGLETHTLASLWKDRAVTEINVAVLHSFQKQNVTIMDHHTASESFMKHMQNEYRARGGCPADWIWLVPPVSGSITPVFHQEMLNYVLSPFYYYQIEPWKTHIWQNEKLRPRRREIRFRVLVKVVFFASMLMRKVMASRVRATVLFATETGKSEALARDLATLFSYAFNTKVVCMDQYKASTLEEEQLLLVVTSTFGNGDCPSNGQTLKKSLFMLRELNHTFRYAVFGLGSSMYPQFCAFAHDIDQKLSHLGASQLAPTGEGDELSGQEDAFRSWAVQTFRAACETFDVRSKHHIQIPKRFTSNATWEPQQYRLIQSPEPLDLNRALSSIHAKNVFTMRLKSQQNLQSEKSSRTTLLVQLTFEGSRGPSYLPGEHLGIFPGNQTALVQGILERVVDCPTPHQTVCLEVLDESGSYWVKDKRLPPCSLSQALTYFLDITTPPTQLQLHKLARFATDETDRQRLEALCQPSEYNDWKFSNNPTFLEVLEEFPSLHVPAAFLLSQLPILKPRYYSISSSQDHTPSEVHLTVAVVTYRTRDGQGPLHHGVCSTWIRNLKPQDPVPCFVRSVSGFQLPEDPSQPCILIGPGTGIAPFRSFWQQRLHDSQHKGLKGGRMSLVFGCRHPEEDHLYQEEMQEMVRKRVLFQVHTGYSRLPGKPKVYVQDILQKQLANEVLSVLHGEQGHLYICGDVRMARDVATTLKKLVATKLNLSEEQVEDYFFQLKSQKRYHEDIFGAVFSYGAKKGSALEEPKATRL

RAW264.7 [4] = assay: Cytotoxicity against LPS-stimulated mouse RAW264.7 cells after 24 hrs by MTT assay; type: cell-based; conditions: RAW264.7, 24 h
RAW264.7 [5] = assay: cells; conditions: Mus musculus, RAW264.7, 24 h
Description: Cytotoxicity against mouse RAW264.7 cells after 24 hrs by MTT assay

[6] = Solubility in EtOH assessed as maximum soluble concentration at 25 degC by nephelometry; type: physicochemical; conditions: ethanol
[7] = Solubility in PBS at pH 7.4 assessed as maximum soluble concentration at 25 degC by nephelometry; type: physicochemical
[8] = Cmax in Sprague-Dawley rat at 5 mg/kg; type: ADME, organism-based; parameters: dose 5 mg/kg; conditions: in vivo
[9] = Tmax in Sprague-Dawley rat at 5 mg/kg; type: ADME, organism-based; parameters: dose 5 mg/kg; conditions: in vivo
[10] = Half life in Sprague-Dawley rat at 5 mg/kg; type: ADME, organism-based; parameters: dose 5 mg/kg; conditions: in vivo
[11] = AUC (0 to t) in Sprague-Dawley rat at 5 mg/kg; type: ADME, organism-based; parameters: dose 5 mg/kg; conditions: plasma
[12] = Cmax in Sprague-Dawley rat at 20 mg/kg, po; type: ADME, organism-based; parameters: dose 20 mg/kg, route oral; conditions: in vivo
[13] = Tmax in Sprague-Dawley rat at 20 mg/kg, po; type: ADME, organism-based; parameters: dose 20 mg/kg, route oral; conditions: in vivo
[14] = Half life in Sprague-Dawley rat at 20 mg/kg, po; type: ADME, organism-based; parameters: dose 20 mg/kg, route oral; conditions: in vivo
[15] = AUC (0 to t) in Sprague-Dawley rat at 20 mg/kg, po; type: ADME, organism-based; parameters: dose 20 mg/kg, route oral; conditions: plasma
[16] = Oral bioavailability in Sprague-Dawley rat at 20 mg/kg; type: ADME, organism-based; conditions: in vivo
Mus musculus = assay: Antiinflammatory activity in ICR mouse assessed as inhibition of carrageenan-induced paw edema at 10 mg/kg, po administered 30 mins before carrageenan challenge measured after 2 hrs; type: functional
Rattus norvegicus = assay: Antiinflammatory activity in CFA-induced Lewis rat arthritis model at 10 mg/kg, po; type: functional, organism-based; parameters: dose 10 mg/kg

SMILES | inhibition (RAW264.7 [1]) | IC50 (RAW264.7 [2]) | IC50 (RAW264.7 [4]) | IC50 (RAW264.7 [5]) | other results
O=C(COc1ccc(C=C2C(=O)NC(=S)NC2=O)cc1)Nc1cccc(Cl)c1 | Active | – | – | – | –
CC(CN(C)C)CN1C(=O)S/C(=C\c2ccc(OCC(=O)Nc3cccc(Cl)c3)cc2)C1=O (centres undefined) | Active | 53.2 µM | > 80 µM | > 80 µM | IC50 [3]: 32.1 µM
COc1cc(/C=C2\SC(=O)NC2=O)cc(OC)c1OCC(=O)Nc1cccc(Cl)c1 | Active | 45.6 µM | > 80 µM | > 80 µM | IC50 [3]: 25.2 µM; solubility kinetic [6]: 3100 µg/mL (≈ 6.91 mM); solubility kinetic [7]: < 500 µg/mL; Cmax [8]: 332 ng/mL; Tmax [9]: 4.2 min; half-life [10]: 7.83 h; AUC(0-t) [11]: 387 ng·h/mL; Cmax [12]: 46.2 ng/mL; Tmax [13]: 2.27 h; half-life [14]: 5.9 h; AUC(0-t) [15]: 421 ng·h/mL; bioavailability [16]: 27.2%; inhibition in vivo at 10 mg/kg (Mus musculus): 26.1%; Activity (Rattus norvegicus): Active
O=C(COc1ccc(/C=C2\SC(=O)N(CCN3CCCCC3)C2=O)cc1)Nc1cccc(Cl)c1 | Active | – | – | – | –
O=C(O)CN1C(=O)/C(=C/c2ccc(OCC(=O)Nc3cccc(Cl)c3)cc2)SC1=S | Active | 68.9 µM | > 80 µM | > 80 µM | IC50 [3]: 47.8 µM
O=C(COc1cccc(/C=C2\SC(=O)NC2=O)c1)Nc1cccc(Cl)c1 | Active | – | – | – | –
O=C(COc1ccc(/C=C2\SC(=O)N(CCN3CCCC3)C2=O)cc1)Nc1cccc(Cl)c1 | Active | – | – | – | –
N=C1NC(=O)/C(=C/c2ccc(OCC(=O)Nc3cccc(Cl)c3)cc2)S1 | Active | – | – | – | –
COCN1C(=O)S/C(=C\c2ccc(OCC(=O)Nc3cccc(Cl)c3)cc2)C1=O | – | > 80 µM | 72.5 µM | 68.4 µM | –
O=C(COc1ccc(/C=C2\SC(=O)NC2=O)cc1)Nc1cccc(Cl)c1 | – | 21.3 µM | > 80 µM | > 80 µM | solubility kinetic [6]: 1500 µg/mL (≈ 3.86 mM); solubility kinetic [7]: < 500 µg/mL; inhibition in vivo at 10 mg/kg (Mus musculus): 37.8%
C#CCN1C(=O)S/C(=C\c2ccc(OCC(=O)Nc3cccc(Cl)c3)cc2)C1=O | Active | – | – | – | –
O=C(COc1ccc(/C=C2\NC(=O)N(Cc3ccccc3)C2=O)cc1)Nc1cccc(Cl)c1 | Active | 75.4 µM | 46.3 µM | > 80 µM | IC50 [3]: 43.2 µM
COc1ccc2c(c1)c(CC(=O)O)c(C)n2C(=O)c1ccc(Cl)cc1 [INDOMETHACIN] | – | 40.3 µM | > 80 µM | > 80 µM | inhibition in vivo at 10 mg/kg (Mus musculus): 33.5%
O=C(COc1ccc(/C=C2\SC(=O)N(CC(=O)Nc3ccccc3)C2=O)cc1)Nc1cccc(Cl)c1 | Active | – | – | – | –
COC(=O)CCN1C(=O)S/C(=C\c2ccc(OCC(=O)Nc3cccc(Cl)c3)cc2)C1=O | Active | – | – | – | –
